Consider eleven compounds from patent US11780830B2, “Triazolone derivatives or salts thereof and pharmaceutical compositions comprising the same” (YUHAN CORPORATION, priority 2018, dated 2023).

What all share (type): biochemical
In assay [1] the target is T1, recombinant human VAP-1 (Homo sapiens, UniProt Q16853).
T1 construct: purchased R&D systems
T1 sequence (Q16853 1-763): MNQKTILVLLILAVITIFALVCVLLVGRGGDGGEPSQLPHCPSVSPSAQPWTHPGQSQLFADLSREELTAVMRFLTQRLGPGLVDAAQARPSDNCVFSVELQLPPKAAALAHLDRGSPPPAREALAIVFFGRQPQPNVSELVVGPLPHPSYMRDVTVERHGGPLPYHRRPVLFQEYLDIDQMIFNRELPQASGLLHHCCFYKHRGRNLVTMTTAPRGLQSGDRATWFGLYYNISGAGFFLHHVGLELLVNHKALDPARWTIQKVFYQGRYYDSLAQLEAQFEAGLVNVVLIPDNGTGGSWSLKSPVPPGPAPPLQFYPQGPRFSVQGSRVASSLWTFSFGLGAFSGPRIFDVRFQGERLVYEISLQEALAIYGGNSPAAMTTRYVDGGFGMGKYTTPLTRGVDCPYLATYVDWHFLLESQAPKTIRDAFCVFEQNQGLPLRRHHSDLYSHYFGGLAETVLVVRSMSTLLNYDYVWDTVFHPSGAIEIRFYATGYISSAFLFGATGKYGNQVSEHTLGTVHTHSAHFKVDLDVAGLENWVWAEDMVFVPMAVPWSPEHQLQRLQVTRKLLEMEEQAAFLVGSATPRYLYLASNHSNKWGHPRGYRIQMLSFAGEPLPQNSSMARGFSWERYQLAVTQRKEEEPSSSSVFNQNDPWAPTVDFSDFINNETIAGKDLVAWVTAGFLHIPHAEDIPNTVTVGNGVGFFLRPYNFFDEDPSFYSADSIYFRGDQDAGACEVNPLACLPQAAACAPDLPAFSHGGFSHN
In words: Activity on recombinant human VAP-1, HRP-coupled Amplex Red hydrogen peroxide assay. The note with it: substrate 1 mM benzylamine; compound incubated with enzyme at 37° C. for 30 minutes; pH 7.4; read-out: Inhibitory Activity (IC50, nM) human VAP-1. An outline of the steps: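 Fluorescence of resorufin formed from H2O2 (ex 544 nm, em 590 nm) was tracked for 1-2 h after adding 1 mM benzylamine, 200 uM Amplex Red and 1 U/mL HRP to enzyme pretreated with compound for 30 min at 37 °C. IC50 values derive from four-variable logistic fits.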

For assay [2], the target named is T2, recombinant human MAO-A (monoamine oxidase-A) (Homo sapiens, UniProt P21397).
T2 construct: purchased Sigma-Aldrich
T2 sequence (P21397 1-527): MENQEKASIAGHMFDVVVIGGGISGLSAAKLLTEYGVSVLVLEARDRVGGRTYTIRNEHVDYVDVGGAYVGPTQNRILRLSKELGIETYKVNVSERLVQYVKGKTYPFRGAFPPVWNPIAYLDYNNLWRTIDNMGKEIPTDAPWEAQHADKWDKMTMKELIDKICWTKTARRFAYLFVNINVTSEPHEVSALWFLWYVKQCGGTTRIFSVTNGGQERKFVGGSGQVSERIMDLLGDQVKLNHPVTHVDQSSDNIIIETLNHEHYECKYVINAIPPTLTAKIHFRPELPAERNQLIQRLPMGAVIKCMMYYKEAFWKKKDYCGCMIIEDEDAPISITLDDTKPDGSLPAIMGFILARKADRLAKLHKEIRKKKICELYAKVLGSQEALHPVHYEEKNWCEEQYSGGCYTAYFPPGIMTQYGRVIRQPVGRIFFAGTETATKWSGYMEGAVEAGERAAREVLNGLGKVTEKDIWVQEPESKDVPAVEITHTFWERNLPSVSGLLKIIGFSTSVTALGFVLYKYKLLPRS
The experiment in a line: Activity on recombinant human MAO-A, method similar to the VAP-1 assay. The following applies: substrate 0.5 mM tyramine; read-out: Inhibitory Activity (IC50, nM) MAO-A. An outline of the steps: (§1)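 Fluorescence (544/590 nm) of resorufin formed from Amplex Red by HRP and enzyme-generated H2O2 was followed over 1-2 h. Substrates were 0.5 mM tyramine for MAO-A and 1 mM benzylamine for MAO-B; compounds were preincubated with enzyme for 30 min at 37° C. IC50 came from four-parameter logistic fitting of signal-rate inhibition.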

The target of assay [3] is T3, recombinant human DAO (diamine oxidase) (Homo sapiens, UniProt P19801).
T3 construct: purchased R&D systems
T3 sequence (P19801 20-751): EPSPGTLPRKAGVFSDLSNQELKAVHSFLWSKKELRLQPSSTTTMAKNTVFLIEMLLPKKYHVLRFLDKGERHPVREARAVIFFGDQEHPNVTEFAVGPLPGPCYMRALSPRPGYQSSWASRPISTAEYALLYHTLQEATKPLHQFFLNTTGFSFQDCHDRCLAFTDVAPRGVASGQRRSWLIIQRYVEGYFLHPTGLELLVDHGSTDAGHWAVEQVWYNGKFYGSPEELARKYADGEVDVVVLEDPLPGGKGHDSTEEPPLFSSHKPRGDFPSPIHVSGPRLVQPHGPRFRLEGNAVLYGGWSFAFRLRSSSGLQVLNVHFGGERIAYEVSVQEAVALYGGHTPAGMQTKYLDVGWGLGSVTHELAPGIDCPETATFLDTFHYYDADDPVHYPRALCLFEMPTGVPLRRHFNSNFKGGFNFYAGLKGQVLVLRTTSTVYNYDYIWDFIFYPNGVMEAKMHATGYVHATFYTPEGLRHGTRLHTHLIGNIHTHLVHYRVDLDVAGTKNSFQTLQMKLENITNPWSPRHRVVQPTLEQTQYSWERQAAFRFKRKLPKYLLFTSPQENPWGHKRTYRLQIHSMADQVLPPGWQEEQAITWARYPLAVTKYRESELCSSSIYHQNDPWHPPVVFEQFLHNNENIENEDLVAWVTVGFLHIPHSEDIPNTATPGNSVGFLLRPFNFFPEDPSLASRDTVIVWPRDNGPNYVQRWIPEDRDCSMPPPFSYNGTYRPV
In words: Activity on recombinant human DAO, method similar to the VAP-1 assay. The note with it: substrate 1 mM putrescine; read-out: Inhibitory Activity (IC50, nM) DAO. An outline of the steps: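 Inhibition of recombinant human diamine oxidase (DAO, R&D systems) was assessed by the same approach as the VAP-1 assay, using 1 mM putrescine as substrate. Hydrogen peroxide formed was detected through an HRP-coupled Amplex Red reaction yielding fluorescent resorufin, read at 544 nm excitation and 590 nm emission. IC50 values came from four-parameter logistic fitting in GraphPad Prism.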

The target of assay [4] is T4, recombinant human MAO-B (monoamine oxidase-B) (Homo sapiens, UniProt P27338).
T4 construct: purchased Sigma-Aldrich
T4 sequence (P27338 1-520): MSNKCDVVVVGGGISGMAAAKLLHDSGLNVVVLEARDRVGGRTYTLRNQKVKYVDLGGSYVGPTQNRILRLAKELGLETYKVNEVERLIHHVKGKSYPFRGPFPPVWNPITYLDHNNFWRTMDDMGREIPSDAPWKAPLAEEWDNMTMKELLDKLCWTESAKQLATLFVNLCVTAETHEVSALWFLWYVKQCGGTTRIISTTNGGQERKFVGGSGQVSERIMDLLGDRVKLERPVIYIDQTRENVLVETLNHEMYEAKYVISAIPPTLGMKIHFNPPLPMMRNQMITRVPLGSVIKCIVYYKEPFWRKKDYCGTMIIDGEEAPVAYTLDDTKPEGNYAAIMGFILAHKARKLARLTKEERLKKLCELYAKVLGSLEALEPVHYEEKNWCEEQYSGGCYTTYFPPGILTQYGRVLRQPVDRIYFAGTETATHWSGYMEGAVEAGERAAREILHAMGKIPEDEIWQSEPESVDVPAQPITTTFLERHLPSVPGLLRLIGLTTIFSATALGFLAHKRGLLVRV
The experiment in a line: Activity on recombinant human MAO-B, method similar to the VAP-1 assay. The note with it: substrate 1 mM benzylamine; read-out: Inhibitory Activity (IC50, nM) MAO-B. A digest of the protocol: as §1

Structures can show the parent of a compound that is named as a salt.

In the case of `CC(=O)N1CC=C(c2ccc(Cn3cnn(C/C(=C/F)CN)c3=O)s2)CC1` [Example 59, 4-[[5-(1-acetyl-3,6-dihydro-2H-pyridin-4-yl)-2-thienyl]methyl]-2-[(E)-2-(aminomethyl)-3-fluoro-allyl]-1,2,4-triazol-3-one], the concentration for half-maximal inhibition (IC50) (in general, the concentration at which inhibition is half-maximal) in assay [1] was 0.5 nM; in assay [2], greater than 100000 nM; in assay [3] it was 1300 nM; in assay [4], 990 nM.

In the case of `CNS(=O)(=O)c1cccc(-c2ccc(Cn3cnn(C/C(=C/F)CN)c3=O)s2)c1` [Example 8, 3-[5-(1-[(2E)-2-(aminomethyl)-3-fluoroprop-2-en-1-yl]-5-oxo-1,5-dihydro-4H-1,2,4-triazol-4-ylmethyl)thiophen-2-yl]-N-methylbenzenesulfonamide hydrochloride], the IC50 in assay [1] is 1.2 nM; in assay [2], greater than 100000 nM; in assay [3], 520 nM; in assay [4], 210 nM.

For `NC/C(=C\F)Cn1ncn(Cc2ccc(-c3ccc4c(c3)CCCN4)s2)c1=O` [Example 110, 2-[(2E)-2-(aminomethyl)-3-fluoroprop-2-en-1-yl]-4-[5-(1,2,3,4-tetrahydroquinolin-6-yl)thiophen-2-yl]methyl-2,4-dihydro-3H-1,2,4-triazol-3-one hydrochloride], the 50% inhibitory concentration (IC50) turned out to be 0.9 nM in assay [1], 32000 nM in assay [2], 220 nM in assay [3] and 370 nM in assay [4].

For `NC/C(=C\F)Cn1ncn(Cc2ccc(-c3cc4c(cc3F)OCCN4)s2)c1=O` [Example 107, 2-[(E)-2-(aminomethyl)-3-fluoro-allyl]-4-[[5-(7-fluoro-3,4-dihydro-2H-1,4-benzoxazin-6-yl)-2-thienyl]methyl]-1,2,4-triazol-3-one], the half-inhibitory concentration (IC50) was found to be 1.5 nM in assay [1], 18000 nM in assay [2], 960 nM in assay [3] and 320 nM in assay [4].

For the compound `CCn1cc(-c2ccc(Cn3cnn(C/C(=C/F)CN)c3=O)s2)cn1` [Example 153, 2-[(2E)-2-(aminomethyl)-3-fluoroprop-2-en-1-yl]-4-{[5-(1-ethyl-1H-pyrazol-4-yl)thiophen-2-yl]methyl}-2,4-dihydro-3H-1,2,4-triazol-3-one], the IC50 in assay [1] was 1.3 nM; in assay [2], greater than 100000 nM; in assay [3], 4700 nM; in assay [4], 1900 nM.

Regarding `COc1ccc(-c2ccc(Cn3cnn(C/C(=C/F)CN)c3=O)s2)cc1OC` [Example 16, 2-[(2E)-2-(aminomethyl)-3-fluoroprop-2-en-1-yl]-4-[5-(3,4-dimethoxyphenyl)thiophen-2-yl]methyl-2,4-dihydro-3H-1,2,4-triazol-3-one hydrochloride], the IC50 in assay [1] was 1.2 nM; in assay [2], greater than 100000 nM; in assay [3] it was 2800 nM; in assay [4], 300 nM.

Consider `CC(C)c1nc(-c2cccc(-c3ccc(Cn4cnn(C/C(=C/F)CN)c4=O)s3)c2)no1` [Example 38, 2-[(2E)-2-(aminomethyl)-3-fluoroprop-2-en-1-yl]-4-[(5-3-[5-(propan-2-yl)-1,2,4-oxadiazol-3-yl]phenylthiophen-2-yl)methyl]-2,4-dihydro-3H-1,2,4-triazol-3-one hydrochloride], for which the IC50 in assay [1] was 2.8 nM; in assay [2], 7900 nM; in assay [3], 2400 nM; in assay [4], 1030 nM.

Regarding `NC/C(=C\F)Cn1ncn(Cc2ccc(-c3ccnnc3)s2)c1=O` [Example 175, 2-[(2E)-2-(aminomethyl)-3-fluoroprop-2-en-1-yl]-4-{[5-(pyridazin-4-yl)thiophen-2-yl]methyl}-2,4-dihydro-3H-1,2,4-triazol-3-one], the 50% inhibitory concentration (IC50) in assay [1] was 3.6 nM; in assay [2], greater than 100000 nM; in assay [3], 670 nM; in assay [4], 4400 nM.

With `NC/C(=C\F)Cn1ncn(Cc2cc3cc(-c4ccc5c(c4)OCO5)ccc3s2)c1=O` [Example 207, 2-[(2E)-2-(aminomethyl)-3-fluoroprop-2-en-1-yl]-4-{[5-(1,3-benzodioxol-5-yl)-1-benzothiophen-2-yl]methyl}-2,4-dihydro-3H-1,2,4-triazol-3-one], the IC50 is 3.8 nM in assay [1], greater than 100000 nM in assay [2], 2800 nM in assay [3] and 64 nM in assay [4].

With `COC(=O)c1ccc(-c2ccc(Cn3cnn(C/C(=C/F)CN)c3=O)s2)cc1` [Example 10, methyl 4-[5-(1-[(2E)-2-(aminomethyl)-3-fluoroprop-2-en-1-yl]-5-oxo-1,5-dihydro-4H-1,2,4-triazol-4-ylmethyl)thiophen-2-yl]benzoate hydrochloride], the IC50 in assay [1] was 1.5 nM; in assay [2], greater than 100000 nM; in assay [3], 500 nM; in assay [4] it was 77 nM.

Regarding `NC/C(=C\F)Cn1ncn(Cc2ccc(/C=C/c3ccc(F)cc3)s2)c1=O` [Example 117, 2-[(2E)-2-(aminomethyl)-3-fluoroprop-2-en-1-yl]-4-(5-[(E)-2-(4-fluorophenyl)ethenyl]thiophen-2-ylmethyl)-2,4-dihydro-3H-1,2,4-triazol-3-one hydrochloride], the IC50 was found to be 1.3 nM in assay [1], 93000 nM in assay [2], 1200 nM in assay [3] and 270 nM in assay [4].
